Results from patent US20040142977A1, “4-Substituted-picolinic acid amide derivatives useful as fungicides” (priority 2001, published 2004).

O=Cc1ccnc(C(=O)Nc2ccc(Oc3ccc(C(F)(F)F)cc3)cc2)c1O [1-2, 2-{N-para-[4-(trifluoromethylphenoxy)phenyl]} aminocarbonyl-3-hydroxy-4-formyl pyridine]
melting point: 160 °C
